The record followed here is patent US20190008848A1, “IDENTIFICATION OF ADDITIONAL ANTI-PERSISTER ACTIVITY AGAINST BORRELIA BURGDORFERI FROM AN FDA DRUG LIBRARY” (THE JOHNS HOPKINS UNIVERSITY, priority 2015, published 2019).

Data set [1] relates to stationary phase B. burgdorferi. The experiment in a line: SYBR Green I/PI viability assay (drug library screen, plate reader). The conditions noted are these: for Residual viable cells (SYBR Green/PI): Table 1; for Residual viable cells (SYBR Green/PI) / Residual viable cells (SYBR/PI) / viability at 50 µM: drugs 50 μM; for Residual viable cells (SYBR/PI): Table 3; for viability at 50 µM: Borreliella burgdorferi, 168 h; for activity against stationary phase B. burgdorferi (in words): screen at 50 μM, 7 days.

Data set [2] deals with growing B. burgdorferi. The experiment in a line: MIC of active hits. It counts as cell-based, Borrelia burgdorferi.
In data set [3] the test system is stationary phase B. burgdorferi. The experiment in a line: Residual viable B. burgdorferi by epifluorescence microscope counting after drug exposure. The settings on record: for viability at 50 µM: Borreliella burgdorferi, 168 h, read-out: Residual viable cells (Microscopy). Here is the method: Borrelia burgdorferi strain B31 (ATCC35210) was received from the […] (Manassas, Va., USA) and was grown in BSK-H medium (HiMedia Laboratories, Mumbai, India) and 6% rabbit serum (Sigma Aldrich, St. Louis, Mo., USA). The culture was filtered and sterilized using a […] and incubated in capped sterile 50 mL conical tubes (BD Biosciences, CA, USA) at 33° C. for 7 days without antibiotics until the culture reached stationary phase.
The cultures were examined using a Nikon Eclipse E800 microscope with differential interference contrast and epifluorescent illumination. The pictures were captured using a SPOT slider color camera. A SYBR Green I/PI assay was used to assess the viability of the bacterial sample using the ratio of live to dead B. burgdorferi (measured with green and red fluorescence, respectively) as measured by a plate reader.
Briefly, prediluted drug stock (10 μL) was added to 7 day old stationary phase B. burgdorferi culture (90 μL) to achieve a 50 μM final drug concentration per well. The plates were then incubated at 33° C. for 7 days at which point the SYBR/PI rapid viability assay was performed in a fluorescence plate reader to obtain the green-red fluorescence ratio.

Setting [4] is: 7 day old stationary phase cells treated for 7 days.
Setting [5] is: 7-day old stationary phase cells treated for 7 days.
[6] abbreviates: Table 1, drugs 50 μM, 7 day old stationary phase cells treated for 7 days.
Setting [7] is: Table 3, drugs 50 μM, 7-day old stationary phase cells treated for 7 days.
[8] abbreviates: read-out: Residual viable cells (SYBR Green/PI), Table 1, 7 day old stationary phase cells treated for 7 days.
The mark [9] stands for this setting: read-out: Residual viable cells (SYBR/PI), Table 3, 7-day old stationary phase cells treated for 7 days.
Where [10] appears, read: Borreliella burgdorferi, read-out: MIC.

Entries after “also recorded” stand apart in the source; their conditions may differ. Read-outs that look alike come from different tables or passages of the source.

Regarding `CO[C@H]1/C=C/O[C@@]2(C)Oc3c(C)c(O)c4c(O)c(c(C=O)c(O)c4c3C2=O)NC(=O)/C(C)=C\C=C\[C@H](C)[C@H](O)[C@@H](C)[C@@H](O)[C@@H](C)[C@H](OC(C)=O)[C@@H]1C` [3-formyl Rifamycin], the “Residual viable cells (SYBR Green/PI)” value in data set [1] (setting [4]) was 42%. Further, in data set [1] (setting [5]), the “Residual viable cells (SYBR/PI)” value was 42%. The MIC in data set [2] lay within 2.27 to 4.54 µg/mL. Further, the “Residual viable cells (Microscopy)” value in data set [3] (setting [6]) and in data set [3] (setting [7]) was 59% in each case.
In the case of `OC(Cn1cncn1)(Cn1cncn1)c1ccc(F)cc1F` [Fluconazole], the viability at 50 µM was 55% in data set [1] (setting [8]), 55% in data set [1] (setting [9]) and 45% in data set [3]. The “activity against stationary phase B. burgdorferi (in words)” value (shortened to “activity”) in data set [1] was “reasonable activity”. Further, the MIC in data set [2] (setting [10]) was in the range of 0.48 to 0.96 µg/mL.
In the case of `Cc1c(-c2cnccn2)ssc1=S` [Oltipraz], the viability at 50 µM turned out to be 46% in data set [1] (setting [8]), 46% in data set [1] (setting [9]) and 55% in data set [3]. For the same molecule, in data set [1], the “activity” value is recorded as “high activity”. For the same molecule, in data set [2] (setting [10]), the MIC was in the range of 0.71 to 1.41 µg/mL.
Take `CCCCCCCCCCCCCCCC[N+](C)(C)CCN(Cc1ccc(OC)cc1)c1ncccn1` [Thonzonium bromide]: the viability at 50 µM in data set [1] (setting [9]) is 31%; in data set [3], 33%. In addition, the “activity” value in data set [1] was “very high activities; also recorded: comparable activity to daptomycin”. Moreover, in data set [2] (setting [10]), the MIC lay in the range of 0.92 to 1.85 µg/mL.
Dextrorphan tartrate: the “Residual viable cells (SYBR Green/PI)” value in data set [1] (setting [4]) stood at 47%. In data set [1] (setting [5]), the “Residual viable cells (SYBR/PI)” value worked out at 47%. Besides, the “activity” value in data set [1] is recorded as “high activity”. In data set [2], the MIC fell in the range of 1.27 to 2.55 µg/mL. In addition, the “Residual viable cells (Microscopy)” value in data set [3] (setting [6]) and in data set [3] (setting [7]) was 43% each time.
For the molecule Verteporfin, in data set [1], the “activity” value is on record as “high activity”. In addition, in data set [2], the minimum inhibitory concentration (MIC) was 4.49 to 8.98 µg/mL. For the same molecule, in data set [3], the “Residual viable cells (Microscopy)” value came to 47%.
